# Reference: patent publication US9440982B2 (Eolas Therapeutics, Inc., priority 2012, dated 2016)
# Biological target: T1, CYP3A4 (Homo sapiens, UniProt P08684)
# T1 construct: pre-incubated with human liver microsomes and NADPH; from tissue; host or cells: human liver microsomes
# Test: Cytochrome P450 inhibition assay (midazolam hydroxylation)
# Format: in vitro ADME
# Details: human, human liver microsomes, probe midazolam (hydroxylation to 1′-hydroxymidazolam), 10 μM test compound, midazolam at approximately its Km
# Method: Compounds were tested for the potential to induce drug-drug interactions by inhibition of the cytochrome P450 3A4 isoform. The assay evaluated the metabolism of a specific marker substrate (CYP3A4, midazolam hydroxylation to 1′-hydroxymidazolam) in the presence or absence of 10 μM test compound. The concentration of the marker substrate was approximately its Km (Dixit et al., Biopharm. Drug Dispos. 2007, 28(5), 257-262). A specific inhibitor for the isoform was included in each run to validate the system. An appropriate positive control inhibitor was used. Mechanism-based inhibition was investigated where warranted using a classical method. To evaluate time-dependent inhibition, parallel samples may have been included where […] was pre-incubated with human liver microsomes and NADPH for 30 min prior to the addition of the P450 substrate. The percent inhibition of the pre-incubated and non-pre-incubated samples were compared as a preliminary evaluation of time-dependent inhibition.
# T1 sequence (P08684 whole entry): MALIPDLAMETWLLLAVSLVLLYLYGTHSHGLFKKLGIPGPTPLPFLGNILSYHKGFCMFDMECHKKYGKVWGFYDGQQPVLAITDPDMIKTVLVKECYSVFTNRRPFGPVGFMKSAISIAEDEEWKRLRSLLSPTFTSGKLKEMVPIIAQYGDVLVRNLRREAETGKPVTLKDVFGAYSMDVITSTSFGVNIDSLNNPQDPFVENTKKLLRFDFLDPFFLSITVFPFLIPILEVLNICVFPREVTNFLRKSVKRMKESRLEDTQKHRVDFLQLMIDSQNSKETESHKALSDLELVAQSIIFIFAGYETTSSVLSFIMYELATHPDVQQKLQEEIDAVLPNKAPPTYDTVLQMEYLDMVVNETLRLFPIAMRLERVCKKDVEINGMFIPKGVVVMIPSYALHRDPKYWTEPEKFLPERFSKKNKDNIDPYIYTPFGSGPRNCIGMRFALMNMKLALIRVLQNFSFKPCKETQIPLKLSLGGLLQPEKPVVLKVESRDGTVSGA
row,Compound,inhibition at 10 µM
1,"COc1ncc(-c2ccc(C)cc2C(=O)N2CCC[C@@H](C)[C@H]2CNc2ccc(C(F)(F)F)cn2)cn1 [Example A4, (2-(2-Methoxypyrimidin-5-yl)-5-methylphenyl)((2S,3R)-3-methyl-2-(((5-(trifluoromethyl)pyridin-2-yl)amino)methyl)piperidin-1-yl)methanone]",96%
2,"Cc1ccc(-c2c(C)noc2C)c(C(=O)N2CCC[C@@H](C)[C@H]2CNc2ccc(C(F)(F)F)cn2)c1 [Example A7, (2-(3,5-Dimethylisoxazol-4-yl)-5-methylphenyl)((2S,3R)-3-methyl-2-(((5-(trifluoromethyl)pyridin-2-yl)amino)methyl)piperidin-1-yl)methanone]",93%
3,"Cc1nc(C(=O)N2CCC[C@@H](C)[C@H]2CNc2nc3cc(F)ccc3o2)c(-c2ccc(F)cc2)s1 [Example A15, ((2S,3R)-2-(((5-Fluorobenzo[d]oxazol-2-yl)amino)methyl)-3-methylpiperidin-1-yl) (5-(4-fluorophenyl)-2-methylthiazol-4-yl)methanone]",78%
4,"Cc1ccc(C#N)c(C(=O)N2CCC[C@@H](C)[C@H]2CNc2ccc(C(F)(F)F)cn2)c1 [Example A22, 4-Methyl-2-((2S,3R)-3-methyl-2-(((5-(trifluoromethyl)pyridin-2-yl)amino)methyl)piperidine-1-carbonyl)benzonitrile]",72%
5,"Cc1ccc(-c2cncn2C)c(C(=O)N2CCC[C@@H](C)[C@H]2CNc2ccc(C(F)(F)F)cn2)c1 [Example A26, ((2S,3R)-3-Methyl-2-(((5-(trifluoromethyl)pyridin-2-yl)amino)methyl)piperidin-1-yl)(5-methyl-2-(1-methyl-1H-imidazol-5-yl)phenyl)methanone]",99%
6,"Cc1ccc(-n2cncn2)c(C(=O)N2CCC[C@@H](C)[C@H]2CNc2nc3cc(Cl)ccc3o2)c1 [Example A28, ((2S,3R)-2-(((5-Chlorobenzo[d]oxazol-2-yl)amino)methyl)-3-methylpiperidin-1-yl)(5-methyl-2-(1H-1,2,4-triazol-1-yl)phenyl)methanone]",95%

# The remaining lines, values ahead:
row,inhibition at 10 µM,Compound
1,57%,"Cc1nc(C(=O)N2CCCC(C)C2CNc2ncc(C(F)(F)F)cn2)c(-c2ccc(F)cc2)s1 (racemic) [Example A311, (+/−)-cis-(5-(4-Fluorophenyl)-2-methylthiazol-4-yl)(3-methyl-2-(((5-(trifluoromethyl)pyrimidin-2-yl)amino)methyl)piperidin-1-yl)methanone]"
2,99%,"Cc1ccc(-c2cncs2)c(C(=O)N2CCC[C@@H](C)[C@H]2CNc2ccc(C(F)(F)F)cn2)c1 [Example A25, ((2S,3R)-3-Methyl-2-(((5-(trifluoromethyl)pyridin-2-yl)amino)methyl)piperidin-1-yl)(5-methyl-2-(thiazol-5-yl)phenyl)methanone]"
3,95%,"Cc1ccc(-c2ccnc(C)n2)c(C(=O)N2CCC[C@@H](C)[C@H]2CNc2nc3cc(Cl)ccc3o2)c1 [Example A27, ((2S,3R)-2-(((5-Chlorobenzo[d]oxazol-2-yl)amino)methyl)-3-methylpiperidin-1-yl)(5-methyl-2-(2-methylpyrimidin-4-yl)phenyl)methanone]"

# Biological target: T2, OX1 (Homo sapiens, UniProt O43613)
# T2 construct: expressed in transfected cells; host or cells: CHO (CHO-OX1, kept under selection antibiotic)
# T2 sequence (O43613 1-425): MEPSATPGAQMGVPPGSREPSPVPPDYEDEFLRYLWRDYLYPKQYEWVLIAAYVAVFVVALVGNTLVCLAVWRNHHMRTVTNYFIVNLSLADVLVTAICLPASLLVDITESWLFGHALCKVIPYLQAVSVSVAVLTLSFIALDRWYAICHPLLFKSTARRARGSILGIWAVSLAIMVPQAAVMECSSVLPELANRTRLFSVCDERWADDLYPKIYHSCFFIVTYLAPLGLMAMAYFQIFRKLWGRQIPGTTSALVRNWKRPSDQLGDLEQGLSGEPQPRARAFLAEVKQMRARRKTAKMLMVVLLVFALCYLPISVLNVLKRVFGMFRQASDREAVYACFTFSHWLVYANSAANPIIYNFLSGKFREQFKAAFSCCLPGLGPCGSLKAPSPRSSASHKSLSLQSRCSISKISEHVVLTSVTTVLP
# Test: Orexin receptor cell-based functional assay, [Ca2+]i by FLIPR, CHO-OX1 cells
# Details: CHO-OX1 cells, [Ca2+]i by FLIPR, antagonist dose-range 0.1 nM-10 μM, EC90 of OXA; read-out: OX1
# Summary of the method: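 Antagonist mode FLIPR calcium read in CHO-OX1 and CHO-OX2 lines. Test compounds, dosed 0.1 nM-10 μM, preincubated 30 min after 37° C dye loading with 2.5 mM probenecid (calcium4 for 30 min or calcium6 for 2 h).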
row,Compound,IC50
1,"Cc1ccc(C(=O)N2CCC[C@@H](C)[C@H]2CNc2ccc(C(F)(F)F)cn2)c(-n2nccn2)c1 [Example A273, ((2S,3R)-3-Methyl-2-(((5-(trifluoromethyl)pyridin-2-yl)amino)methyl)piperidin-1-yl)(4-methyl-2-(2H-1,2,3-triazol-2-yl)phenyl)methanone]",6 nM
2,"C[C@@H]1CCCN(C(=O)c2c(-n3nccn3)ccc(F)c2F)[C@@H]1CNc1ccc(C(F)(F)F)cn1 [Example A336, (2,3-Difluoro-6-(2H-1,2,3-triazol-2-yl)phenyl)((2S,3R)-3-methyl-2-(((5-(trifluoromethyl)pyridin-2-yl)amino)m*ethyl)piperidin-1-yl)methanone]",10 nM
3,"Cc1c(F)ccc(-n2nccn2)c1C(=O)N1CCC[C@@H](C)[C@H]1CNc1ccc(C(F)(F)F)cn1 [Example A384, (3-Fluoro-2-methyl-6-(2H-1,2,3-triazol-2-yl)phenyl)((2S,3R)-3-methyl-2-(((5-(trifluoromethyl)pyridin-2-yl)amino)methyl)piperidin-1-yl)methanone]",19 nM

# Second part, the compound after the results:
row,IC50,Compound
1,150 nM,"Cc1ccc(-c2ccccn2)c(C(=O)N2CCC[C@@H](C)[C@H]2CNc2ccc(C(F)(F)F)cn2)n1 [Example A217, ((2S,3R)-3-Methyl-2-(((5-(trifluoromethyl)pyridin-2-yl)amino)methyl)piperidin-1-yl)(6′-methyl-[2,3′-bipyridin]-2′-yl)methanone]"
2,82 nM,"Cc1ccc(-c2cccnc2)c(C(=O)N2CCC[C@@H](C)[C@H]2CNc2ncc(Cl)cn2)n1 [Example A222, ((2S,3R)-2-(((5-Chloropyrimidin-2-yl)amino)methyl)-3-methylpiperidin-1-yl)(6-methyl-[3,3′-bipyridin]-2-yl)methanone]"
3,13 nM,Cc1ccc(-c2cccnc2)c(C(=O)N2CCC[C@@H](C)[C@H]2CNc2ccc(Cl)cn2)n1 [Example A224]
4,340 nM,"C[C@@H]1CCCN(C(=O)c2nccc3ccccc23)[C@@H]1CNc1ncc(Cl)cn1 [Example A225, ((2S,3R)-2-(((5-Chloropyrimidin-2-yl)amino)methyl)-3-methylpiperidin-1-yl)(isoquinolin-1-yl)methanone]"
5,58 nM,"C[C@@H]1CCCN(C(=O)c2ccc(F)cc2-n2nccn2)[C@@H]1CNc1ncc(C(F)(F)F)cn1 [Example A251, (4-Fluoro-2-(2H-1,2,3-triazol-2-yl)phenyl)((2S,3R)-3-methyl-2-(((5-(trifluoromethyl)pyrimidin-2-yl)amino)methyl)piperidin-1-yl)methanone]"
6,14 nM,"Cc1ccc(C(=O)N2CCC[C@@H](C)[C@H]2CNc2ncc(C(F)(F)F)cn2)c(-n2nccn2)c1 [Example A272, ((2S,3R)-3-Methyl-2-(((5-(trifluoromethyl)pyrimidin-2-yl)amino)methyl)piperidin-1-yl)(4-methyl-2-(2H-1,2,3-triazol-2-yl)phenyl)methanone]"
7,9 nM,"C[C@@H]1CCCN(C(=O)c2c(-n3nccn3)ccc(F)c2F)[C@@H]1CNc1ncc(C(F)(F)F)cn1 [Example A337, (2,3-Difluoro-6-(2H-1,2,3-triazol-2-yl)phenyl)((2S,3R)-3-methyl-2-(((5-(trifluoromethyl)pyrimidin-2-yl)amino)methyl)piperidin-1-yl)methanone]"
8,5 nM,"COc1ccc(-n2nccn2)c(C(=O)N2CCC[C@@H](C)[C@H]2CNc2ncc(C(F)(F)F)cn2)c1F [Example A339, (2-Fluoro-3-methoxy-6-(2H-1,2,3-triazol-2-yl)phenyl)((2S,3R)-3-methyl-2-(((5-(trifluoromethyl)pyrimidin-2-yl)amino)methyl)piperidin-1-yl)methanone]"
9,5 nM,"C[C@@H]1CCCN(C(=O)c2c(-c3ncccn3)ccc(F)c2F)[C@@H]1CNc1ncc(C(F)(F)F)cn1 [Example A389, (2,3-Difluoro-6-(pyrimidin-2-yl)phenyl)((2S,3R)-3-methyl-2-(((5-(trifluoromethyl)pyrimidin-2-yl)amino)methyl)piperidin-1-yl)methanone]"
